According to US11820766B2, “Monoacylglycerol lipase modulators” (Janssen Pharmaceutica NV, priority 2018, dated 2023):

What follows are compounds tested against T1, human MGL from HeLa cells (Homo sapiens, UniProt Q99685) (assay: In vitro MGL activity assay: [glycerol-1,3-3H]-oleyl glycerol cleavage by MGL from HeLa cells). Conditions: 300 nM [Glycerol-1,3-3H]-oleyl glycerol, one hour.
T1 construct: combining endogenously expressed MGL from HeLa cells with test compounds; endogenous in cells; host or cells: HeLa cells / cell homogenates
T1 sequence (Q99685 1-303): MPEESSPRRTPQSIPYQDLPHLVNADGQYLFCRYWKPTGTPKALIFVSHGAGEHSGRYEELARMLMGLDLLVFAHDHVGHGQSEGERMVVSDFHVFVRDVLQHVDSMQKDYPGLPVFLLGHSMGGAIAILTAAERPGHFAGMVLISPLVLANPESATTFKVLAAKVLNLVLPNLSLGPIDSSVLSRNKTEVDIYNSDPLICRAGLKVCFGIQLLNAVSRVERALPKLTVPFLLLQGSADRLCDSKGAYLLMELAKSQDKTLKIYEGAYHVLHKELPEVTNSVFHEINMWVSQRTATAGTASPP
Type: biochemical
Source text: MGL is the predominant hydrolase in HeLa cells/cell homogenates.

Row | IC50 [nM] | Compound
1 | 24.9 | C[C@H]1c2nn(C)c(-c3cc(F)c(F)c(F)c3)c2CCN1C(=O)c1cnc2cccnn12 [Example 454, [(7S)-2,7-Dimethyl-3-(3,4,5-trifluorophenyl)-5,7-dihydro-4H-pyrazolo[3,4-c]pyridin-6-yl]-imidazo[1,2-b]pyridazin-3-yl-methanone]
2 | 23.2 | Cc1nc2cccnn2c1C(=O)N1CCc2c(nn(C)c2-c2cc(F)c(F)c(F)c2)[C@@H]1C [Example 455, [(7S)-2,7-Dimethyl-3-(3,4,5-trifluorophenyl)-5,7-dihydro-4H-pyrazolo[3,4-c]pyridin-6-yl]-(2-methylimidazo[1,2-b]pyridazin-3-yl)methanone]
3 | 25.4 | Cc1nc2c(C)ccnn2c1C(=O)N1CCc2c(nn(C)c2-c2cc(F)c(F)c(F)c2)[C@@H]1C [Example 456, (2,8-Dimethylimidazo[1,2-b]pyridazin-3-yl)-[(7S)-2,7-dimethyl-3-(3,4,5-trifluorophenyl)-5,7-dihydro-4H-pyrazolo[3,4-c]pyridin-6-yl]methanone]
4 | 39.4 | Cc1cnn2c(C(=O)N3CCc4c(nn(C)c4-c4cc(F)c(F)c(F)c4)[C@@H]3C)c(C)nc2c1 [Example 457, (2,7-Dimethylimidazo[1,2-b]pyridazin-3-yl)-[(7S)-2,7-dimethyl-3-(3,4,5-trifluorophenyl)-5,7-dihydro-4H-pyrazolo[3,4-c]pyridin-6-yl] methanone]
5 | 163 | Cc1nc2ncccn2c1C(=O)N1CCc2c(nn(C)c2-c2cc(F)c(F)c(F)c2)[C@@H]1C [Example 458, [(7S)-2,7-Dimethyl-3-(3,4,5-trifluorophenyl)-5,7-dihydro-4H-pyrazolo[3,4-c]pyridin-6-yl]-(2-methylimidazo[1,2-a]pyrimidin-3-yl)methanone]
6 | 312 | Cc1nc2c(C)ncc(C)n2c1C(=O)N1CCc2c(nn(C)c2-c2cc(F)c(F)c(F)c2)[C@@H]1C [Example 459, [(7S)-2,7-Dimethyl-3-(3,4,5-trifluorophenyl)-5,7-dihydro-4H-pyrazolo[3,4-c]pyridin-6-yl]-(2,5,8-trimethylimidazo[1,2-a]pyrazin-3-yl)methanone]
7 | 522 | Cc1nc(C(=O)N2CCc3c(nn(C)c3-c3cc(F)c(F)c(F)c3)[C@@H]2C)c2ncccn12 [Example 460, [(7S)-2,7-Dimethyl-3-(3,4,5-trifluorophenyl)-5,7-dihydro-4H-pyrazolo[3,4-c]pyridin-6-yl]-(6-methylimidazo[1,5-a]pyrimidin-8-yl)methanone]
8 | 1010 | Cc1cnc2c(C(=O)N3CCc4c(nn(C)c4-c4cc(F)c(F)c(F)c4)[C@@H]3C)ncn2c1 [Example 461, [(7S)-2,7-Dimethyl-3-(3,4,5-trifluorophenyl)-5,7-dihydro-4H-pyrazolo[3,4-c]pyridin-6-yl]-(3-methylimidazo[1,5-a]pyrimidin-8-yl)methanone]
9 | 35.4 | Cc1nc(C(=O)N2CCc3c(nn(C)c3-c3cc(F)c(F)c(F)c3)[C@@H]2C)c2cnccn12 [Example 462, [(7S)-2,7-Dimethyl-3-(3,4,5-trifluorophenyl)-5,7-dihydro-4H-pyrazolo[3,4-c]pyridin-6-yl]-(3-methylimidazo[1,5-a]pyrazin-1-yl) methanone]
10 | 19.8 | C[C@H]1c2nn(C)c(-c3cc(F)c(F)c(F)c3)c2CCN1C(=O)c1nc(C(F)(F)F)n2ccncc12 [Example 463, [(7S)-2,7-Dimethyl-3-(3,4,5-trifluorophenyl)-5,7-dihydro-4H-pyrazolo[3,4-c]pyridin-6-yl]-[3-(trifluoromethyl)imidazo[1,5-a]pyrazin-1-yl]methanone]
11 | 31.4 | Cc1c[nH]c2ncnc(C(=O)N3CCc4c(nn(C)c4-c4cc(F)c(F)c(F)c4)[C@@H]3C)c12 [Example 464, [(7S)-2,7-Dimethyl-3-(3,4,5-trifluorophenyl)-5,7-dihydro-4H-pyrazolo[3,4-c]pyridin-6-yl]-(5-methyl-7H-pyrrolo[2,3-d]pyrimidin-4-yl)methanone]
12 | 8.46 | Cc1cc(F)cc(-c2c3c(nn2C)[C@H](C)N(C(=O)c2ncnc4c2ccn4C)CC3)c1 [Example 465, [(7S)-3-(3-Fluoro-5-methyl-phenyl)-2,7-dimethyl-5,7-dihydro-4H-pyrazolo[3,4-c]pyridin-6-yl]-(7-methylpyrrolo[2,3-d]pyrimidin-4-yl) methanone]
13 | 5.86 | C[C@H]1c2nn(C)c(-c3cc(F)c(F)c(F)c3)c2CCN1C(=O)c1ncnc2c1ccn2C [Example 466, [(7S)-2,7-Dimethyl-3-(3,4,5-trifluorophenyl)-5,7-dihydro-4H-pyrazolo[3,4-c]pyridin-6-yl]-(7-methylpyrrolo[2,3-d]pyrimidin-4-yl)methanone]
14 | 36.1 | Cc1cn(C)c2ncnc(C(=O)N3CCc4c(nn(C)c4-c4cc(F)c(F)c(F)c4)[C@@H]3C)c12 [Example 467, (5,7-Dimethylpyrrolo[2,3-d]pyrimidin-4-yl)-[(7S)-2,7-dimethyl-3-(3,4,5-trifluorophenyl)-5,7-dihydro-4H-pyrazolo[3,4-c]pyridin-6-yl] methanone]
15 | 50.7 | C[C@H]1c2nn(C)c(-c3cccc(C(F)(F)F)c3)c2CCN1C(=O)c1ccc2ncccc2c1 [Example 468, [(7S)-2,7-Dimethyl-3-[3-(trifluoromethyl)phenyl]-5,7-dihydro-4H-pyrazolo[3,4-c]pyridin-6-yl]-(6-quinolyl)methanone]
16 | 36.4 | Cc1cc2c(C(=O)N3CCc4c(nn(C)c4-c4cc(F)c(F)c(F)c4)[C@@H]3C)ncnc2n1C [Example 469, (6,7-Dimethylpyrrolo[2,3-d]pyrimidin-4-yl)-[(7S)-2,7-dimethyl-3-(3,4,5-trifluorophenyl)-5,7-dihydro-4H-pyrazolo[3,4-c]pyridin-6-yl]methanone]
17 | 3350 | C[C@H]1c2nn(C)c(-c3cc(F)c(F)c(F)c3)c2CCN1C(=O)c1ncnc2nc[nH]c12 [Example 470, [(7S)-2,7-Dimethyl-3-(3,4,5-trifluorophenyl)-5,7-dihydro-4H-pyrazolo[3,4-c]pyridin-6-yl]-(7H-purin-6-yl)methanone]
18 | 32.5 | C[C@H]1c2nn(C)c(-c3cc(F)c(F)c(F)c3)c2CCN1C(=O)c1ncnc2c1cnn2C [Example 471, [(7S)-2,7-Dimethyl-3-(3,4,5-trifluorophenyl)-5,7-dihydro-4H-pyrazolo[3,4-c]pyridin-6-yl]-(1-methylpyrazolo[3,4-d]pyrimidin-4-yl)methanone]
19 | 1560 | Cc1cc(C(=O)N2CCc3c(nn(C)c3-c3cc(F)c(F)c(F)c3)[C@@H]2C)n2ncnc2n1 [Example 472, [(7S)-2,7-Dimethyl-3-(3,4,5-trifluorophenyl)-5,7-dihydro-4H-pyrazolo[3,4-c]pyridin-6-yl]-(5-methyl-[1,2,4]triazolo[1,5-a]pyrimidin-7-yl)methanone]
20 | 30.7 | Cc1cc2nccnc2cc1C(=O)N1CCc2c(nn(C)c2-c2cc(F)c(F)c(F)c2)[C@@H]1C [Example 473, [(7S)-2,7-Dimethyl-3-(3,4,5-trifluorophenyl)-5,7-dihydro-4H-pyrazolo[3,4-c]pyridin-6-yl]-(7-methylquinoxalin-6-yl) methanone]
21 | 85.3 | Cc1cnc2c(C(=O)N3CCc4c(nn(C)c4-c4cc(F)c(F)c(F)c4)[C@@H]3C)cccc2n1 [Example 474, [(7S)-2,7-Dimethyl-3-(3,4,5-trifluorophenyl)-5,7-dihydro-4H-pyrazolo[3,4-c]pyridin-6-yl]-(2-methylquinoxalin-5-yl)methanone]
22 | 73.6 | Cc1cnc2cccc(C(=O)N3CCc4c(nn(C)c4-c4cc(F)c(F)c(F)c4)[C@@H]3C)c2n1 [Example 475, [(7S)-2,7-Dimethyl-3-(3,4,5-trifluorophenyl)-5,7-dihydro-4H-pyrazolo[3,4-c]pyridin-6-yl]-(3-methylquinoxalin-5-yl)methanone]
23 | 25.4 | Cc1nc2ccc(C(=O)N3CCc4c(nn(C)c4-c4cc(F)c(F)c(F)c4)[C@@H]3C)cc2nc1C [Example 476, (2,3-Dimethylquinoxalin-6-yl)-[(7S)-2,7-dimethyl-3-(3,4,5-trifluorophenyl)-5,7-dihydro-4H-pyrazolo[3,4-c]pyridin-6-yl]methanone]
24 | 126 | C[C@H]1c2nn(C)c(-c3cc(F)c(F)c(F)c3)c2CCN1C(=O)c1cnc2ccccc2n1 [Example 477, [(7S)-2,7-Dimethyl-3-(3,4,5-trifluorophenyl)-5,7-dihydro-4H-pyrazolo[3,4-c]pyridin-6-yl]-quinoxalin-2-yl-methanone]
25 | 112 | C[C@H]1c2nn(C)c(-c3cc(F)c(F)c(F)c3)c2CCN1C(=O)c1cc2ccccc2nn1 [Example 478, Cinnolin-3-yl-[(7S)-2,7-dimethyl-3-(3,4,5-trifluorophenyl)-5,7-dihydro-4H-pyrazolo[3,4-c]pyridin-6-yl]methanone]
26 | 189 | C[C@H]1c2nn(C)c(-c3cc(F)c(F)c(F)c3)c2CCN1C(=O)c1ccc2ncncc2c1 [Example 479, [(7S)-2,7-Dimethyl-3-(3,4,5-trifluorophenyl)-5,7-dihydro-4H-pyrazolo[3,4-c]pyridin-6-yl]-quinazolin-6-yl-methanone]
27 | 207 | C[C@H]1c2nn(C)c(-c3cc(F)c(F)c(F)c3)c2CCN1C(=O)c1ccc2cncnc2c1 [Example 480, [(7S)-2,7-Dimethyl-3-(3,4,5-trifluorophenyl)-5,7-dihydro-4H-pyrazolo[3,4-c]pyridin-6-yl]-quinazolin-7-yl-methanone]
28 | 5.2 | C[C@H]1c2nn(C)c(-c3cc(F)c(F)c(F)c3)c2CCN1C(=O)c1ncnc2c(F)cccc12 [Example 481, [(7S)-2,7-Dimethyl-3-(3,4,5-trifluorophenyl)-5,7-dihydro-4H-pyrazolo[3,4-c]pyridin-6-yl]-(8-fluoroquinazolin-4-yl)methanone]
